Results on four compounds are retold here after paper PMC10058310 (Science Advances, 2023).

In assay [1] the test system is recombinant SARS2 encoding WT M^pro. As to the kind of experiment: microbe, parasite or virus in culture. It counts as cell-based. The note with it: A549-hACE2 cells; for IC50: Severe acute respiratory syndrome coronavirus 2, replication-competent SARS-CoV-2, M^pro WT, 72 hpi, read-out: IC50 (95% CI).
Assay [2] concerns recombinant SARS2 encoding ∆P168 M^pro. Description: microbe, parasite or virus in culture. It counts as cell-based. The note with it: Severe acute respiratory syndrome coronavirus 2; read-out: IC50 (95% CI).
In assay [3] the target is SARS2 M^pro ∆P168 (Severe acute respiratory syndrome coronavirus 2, UniProt P0DTD1, DEL3431-3431). It counts as cell-based, SARS-CoV-2.

One may read the IC50 as the concentration at which inhibition is half-maximal. In the case of `Cn1cnc(Cn2c(=O)[nH]/c(=N\c3cc4cn(C)nc4cc3Cl)n(Cc3cc(F)c(F)cc3F)c2=O)n1` [Ensitrelvir, ensitrelvir], the IC50 in assay [1] came out at 4.3 nM; in assay [2] it was 3.6 nM.
As to `CC(C)(C)[C@H](NC(=O)C(F)(F)F)C(=O)N1C[C@H]2[C@@H]([C@H]1C(=O)N[C@H](C#N)C[C@@H]1CCNC1=O)C2(C)C` [Nirmatrelvir, nirmatrelvir], the IC50 in assay [1] worked out at 4.4 nM; in assay [2], 7 nM.
Regarding `CCC(CC)COC(=O)[C@H](C)N[P@](=O)(OC[C@H]1O[C@@](C#N)(c2ccc3c(N)ncnn23)[C@H](O)[C@@H]1O)Oc1ccccc1` [Remdesivir, remdesivir], the “Fold change in antiviral EC50” value in assay [1] (M^pro WT virus (reference)) is given as 1.0 fold. For the same compound, the IC50 in assay [1] was determined as 1200 nM; in assay [2] it was 1100 nM.
On to `CC(C)(C)NC(=O)N[C@H](C(=O)N1C[C@H]2[C@@H]([C@H]1C(=O)NC(CC1CCC1)C(=O)C(N)=O)C2(C)C)C(C)(C)C` (some centres unmarked) [boceprevir], for which the “effect on dose-response curve versus WT M^pro” value in assay [3] is given as “no detectable effect”.
